Read-outs that look alike come from different tables or passages of the source.
Tests used:
Assay type in all cases: biochemical
[1] = target: S6K1 (Homo sapiens, UniProt P23443); assay: Kinase screen: S6K1/P70 S6K assay
Description: (§1) Generally, the same procedure was used for all assays. Since the total assay volume was 25.5 microliters, 0.5 microliters of inhibitors at 51× assay concentration were added to the plates before any other addition.
(§2) The basic procedure was to add 0.5 microliters inhibitor/control in DMSO to plate. Fifteen microliters of enzyme/substrate/buffer mix were added and incubated for 5 min. Ten microliters MgATP at the relevant concentration were added and incubated for 30 min. The assay was stopped by adding 5 microliters of 3% orthophosphoric acid. The assay was transferred to a p81 filter plate and read in a scintillation counter of 30 sec/well. Note that this assay procedure was not followed for MKK1, which instead involved a two-step assay, and PKC alpha, which required the addition of lipid vesicles.
(§3) (50-1000 cpm/pmole) and incubated for 30 min at room temperature. Assays were stopped by addition of 5 μl of 0.5 M (3%) orthophosphoric acid and then harvested onto P81 Unifilter plates with a wash buffer of 50 mM orthophosphoric acid.

[2] = target: GSK3β (Homo sapiens, UniProt P49841); assay: Kinase screen: GSK3b assay
Description: as §1, §2, §3

[3] = target: T1, DYRK2 (Homo sapiens, UniProt Q92630); assay: Kinase screen: DYRK2 assay
T1 sequence (Q92630 1-601): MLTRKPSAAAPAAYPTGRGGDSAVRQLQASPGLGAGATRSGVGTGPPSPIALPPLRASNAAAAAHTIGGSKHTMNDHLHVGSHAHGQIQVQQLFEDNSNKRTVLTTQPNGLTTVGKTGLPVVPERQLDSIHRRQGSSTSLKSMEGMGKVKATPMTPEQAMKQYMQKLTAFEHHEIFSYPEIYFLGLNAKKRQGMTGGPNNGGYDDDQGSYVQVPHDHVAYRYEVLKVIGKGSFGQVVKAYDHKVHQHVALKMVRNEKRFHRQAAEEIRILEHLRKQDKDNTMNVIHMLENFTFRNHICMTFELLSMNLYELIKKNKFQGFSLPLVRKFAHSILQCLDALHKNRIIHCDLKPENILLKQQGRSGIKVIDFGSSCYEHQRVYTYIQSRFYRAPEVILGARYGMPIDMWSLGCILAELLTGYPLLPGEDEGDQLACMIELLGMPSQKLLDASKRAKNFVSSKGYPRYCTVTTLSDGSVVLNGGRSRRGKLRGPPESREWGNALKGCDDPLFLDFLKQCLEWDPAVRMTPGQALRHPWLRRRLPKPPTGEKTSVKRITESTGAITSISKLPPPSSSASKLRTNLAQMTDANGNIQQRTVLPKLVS
Description: as §1, §2
(§4) DYRK2 assay: DYRK2 (5-20 mU of diluted in 50 mM Tris pH7.5, 0.1 mM EGTA) was assayed against Woodtide ([…]) (SEQ ID NO: 29) in a final volume of 25.5 μ1 containing 50 mM Tris pH 7.5, 0.1 mM EGTA, 350 μM substrate peptide, 10 mM Magnesium acetate and 0.05 mM [33P-g-ATP] (50-1000 cpm/pmole) and incubated for 30 min at room temperature. Assays were stopped by addition of 5 μl of 0.5 M (3%) orthophosphoric acid and then harvested onto P81 Unifilter plates with a wash buffer of 50 mM orthophosphoric acid.

[4] = target: T2, DYRK3 (Homo sapiens, UniProt O43781); assay: Kinase screen: DYRK3 assay
T2 sequence (O43781 1-588): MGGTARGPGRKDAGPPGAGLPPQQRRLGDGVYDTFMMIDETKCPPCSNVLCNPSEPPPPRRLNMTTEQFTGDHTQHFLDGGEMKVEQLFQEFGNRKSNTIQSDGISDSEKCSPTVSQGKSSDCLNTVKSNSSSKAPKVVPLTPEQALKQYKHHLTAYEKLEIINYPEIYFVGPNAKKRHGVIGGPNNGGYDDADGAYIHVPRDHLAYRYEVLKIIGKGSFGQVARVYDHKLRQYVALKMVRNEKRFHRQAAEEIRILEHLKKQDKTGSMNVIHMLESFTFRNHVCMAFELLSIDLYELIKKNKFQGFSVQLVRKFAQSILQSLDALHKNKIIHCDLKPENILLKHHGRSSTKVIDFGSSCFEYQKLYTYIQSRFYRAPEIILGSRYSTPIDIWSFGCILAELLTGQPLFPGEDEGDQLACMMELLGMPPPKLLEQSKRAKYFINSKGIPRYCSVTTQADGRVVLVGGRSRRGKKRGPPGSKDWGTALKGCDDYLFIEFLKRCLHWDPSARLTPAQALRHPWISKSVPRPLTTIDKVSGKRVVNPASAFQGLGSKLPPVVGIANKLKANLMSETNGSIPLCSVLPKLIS
Description: as §1, §2
as §4, with “DYRK3” for “DYRK2”, “μl” for “μ1”, “0.005” for “0.05”

[5] = 10 micromolar compound, read-out: mean activity remaining (as a percentage of the original activity), S6K1
[6] = 10 micromolar compound, read-out: mean activity remaining (as a percentage of the original activity), GSK 3b
[7] = 10 micromolar compound, read-out: mean activity remaining (as a percentage of the original activity), DYRK 2
[8] = 10 micromolar compound, read-out: mean activity remaining (as a percentage of the original activity), DYRK 3

Sequence of S6K1 (P23443 whole entry, species assumed): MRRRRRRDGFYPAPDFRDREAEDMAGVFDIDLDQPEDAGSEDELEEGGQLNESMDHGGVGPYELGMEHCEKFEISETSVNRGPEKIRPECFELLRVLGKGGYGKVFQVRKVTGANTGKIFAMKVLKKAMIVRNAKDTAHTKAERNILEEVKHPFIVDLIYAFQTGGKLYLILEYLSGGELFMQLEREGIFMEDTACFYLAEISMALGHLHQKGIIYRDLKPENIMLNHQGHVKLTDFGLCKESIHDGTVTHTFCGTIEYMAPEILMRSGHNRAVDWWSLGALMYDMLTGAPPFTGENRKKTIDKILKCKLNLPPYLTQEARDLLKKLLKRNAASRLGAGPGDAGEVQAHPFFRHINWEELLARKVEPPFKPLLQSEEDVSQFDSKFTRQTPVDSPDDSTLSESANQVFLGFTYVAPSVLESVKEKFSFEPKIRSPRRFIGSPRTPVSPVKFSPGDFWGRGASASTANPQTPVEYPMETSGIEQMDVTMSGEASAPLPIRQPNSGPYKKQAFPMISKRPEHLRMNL
Sequence of GSK3β (P49841 whole entry, species assumed): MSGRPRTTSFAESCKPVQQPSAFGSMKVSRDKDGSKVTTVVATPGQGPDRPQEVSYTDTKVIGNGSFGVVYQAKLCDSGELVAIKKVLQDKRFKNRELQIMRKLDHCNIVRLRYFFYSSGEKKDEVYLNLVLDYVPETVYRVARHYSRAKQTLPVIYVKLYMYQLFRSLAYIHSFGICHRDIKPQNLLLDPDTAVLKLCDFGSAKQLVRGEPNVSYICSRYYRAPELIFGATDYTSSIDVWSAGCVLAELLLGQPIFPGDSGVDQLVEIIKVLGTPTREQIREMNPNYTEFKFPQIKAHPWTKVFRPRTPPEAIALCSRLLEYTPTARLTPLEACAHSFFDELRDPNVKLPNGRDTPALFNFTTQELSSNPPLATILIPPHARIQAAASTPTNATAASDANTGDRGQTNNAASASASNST

| Structure (SMILES) | remaining activity at 10 µM [1, 5] | remaining activity at 10 µM [2, 6] | remaining activity at 10 µM [3, 7] | remaining activity at 10 µM [4, 8] | other results |
| --- | --- | --- | --- | --- | --- |
| CC(C)c1cnn2c(NCc3ccccc3F)cc(NCCCCCN)nc12 [ICEC-0232] |  |  |  |  | mean activity remaining (as a percentage of the original activity), S6K1 ([1]; 10 micromolar compound): 42%; mean activity remaining (as a percentage of the original activity), GSK 3b ([2]; 10 micromolar compound): 70%; mean activity remaining (as a percentage of the original activity), DYRK 2 ([3]; 10 micromolar compound): 68%; mean activity remaining (as a percentage of the original activity), DYRK 3 ([4]; 10 micromolar compound): 60% |
| CC(C)c1cnn2c(NCc3ccccc3)cc(NCCCCCCCN)nc12 [BS-181] |  |  |  |  | remaining activity at 10 µM ([1]; S6K1, 10 μM, read-out: Mean Remaining Enzyme Activity (%)): 95%; remaining activity at 10 µM ([2]; GSK3β, 10 μM, read-out: Mean Remaining Enzyme Activity (%)): 112%; remaining activity at 10 µM ([3]; DYRK2, 10 μM, read-out: Mean Remaining Enzyme Activity (%)): 94%; remaining activity at 10 µM ([4]; DYRK3, 10 μM, read-out: Mean Remaining Enzyme Activity (%)): 87% |
| CC[C@H](CO)Nc1cc(NCc2ccccc2)n2ncc(C(C)C)c2n1 [ICEC0067] | 74% | 72% | 90% | 90% |  |
| C=C[C@H](CO)Nc1cc(NCc2ccccc2)n2ncc(C(C)C)c2n1 [ICEC0065] | 78% | 92% | 90% | 86% |  |
| CC(C)c1cnn2c(NCc3ccccc3)cc(N[C@@H](CO)[C@H](O)CO)nc12 [ICEC0318, (3S)-3-(7-(Benzylamino)-3-isopropylpyrazolo[1,5-a]pyrimidin-5-ylamino)butane-1,2,4-triol] | 77% | 63% | 75% | 88% |  |

Source: patent publication US8067424B2, “Selective inhibitors for cyclin-dependent kinases” (Emory University, priority 2007, dated 2011)
